We go through 5 molecules from US20220079952A1, “Uses of Radiation and Benzodiazepine Derivatives in Cancer Therapies” (Emory University, priority 2019, published 2022).

The subject of one data set is A375 cells. The data set can be described thus: Melanoma cell viability, 48 hours treatment, A375. The class given is cell-based, human. The settings on record: for effect on cell viability: A375; for IC50: Homo sapiens, A-375, A375, 48 hours, read-out: IC50, reduction in cell viability. How it is done: (§1) The electrophysiology whole-cell patch clamp experiments occur within a minute. […] To determine their effect on melanoma cell survival, A375 and B16F10 were treated with QH-II-066, KRM-II-08, or diazepam for 48 hours.

The subject of a further data set is B16F10 cells. The data set can be described thus: Melanoma cell viability, 48 hours treatment, B16F10. The class given is cell-based, murine. The following applies: for effect on cell viability: B16F10; for IC50: Mus musculus, B16-F10, B16F10, 48 hours, read-out: IC50, reduction in cell viability. The protocol: as §1
Data set [1] deals with GABAAR. The experiment in a line: Whole-cell patch clamp electrophysiology in A375 melanoma cells. The class given is cell-based, human. The following applies: for mode of action at GABAAR from electrophysiology: A375 and B16F10 cells; for EC50: read-out: EC50, enhancement of the effect of GABA, [GABA]=1 μM, benzodiazepine 0-10 μM. The protocol: (§2) GABAAR is an anion (Cl—) channel that changes the transmembrane potential of cells, either depolarizing or hyperpolarizing depending upon channel directionality and activity of other membrane transport protein. To establish autonomous expression of GABAAR subunits in melanoma cell lines results in assembly of a functional ligand-dependent channel, electrophysiological testing was performed in human melanoma (A375) and murine (B16F10) lines. Patch clamp currents were recorded for A375 and B16F10. […] A fully functional benzodiazepine binding site requires assembly of a GABAAR with a canonical αβαβγ subunit stoichiometry.
(§3) Two benzodiazepines were tested (QH-II-066 and KRM-II-08). QH-II-066 and KRM-II-08 differ in having H and F at R2′ of the benzene ring of benzodiazepine, respectively.

In data set [2] the test system is GABAAR. The experiment in a line: Whole-cell patch clamp electrophysiology in B16F10 melanoma cells. The class given is cell-based, murine. The following applies: for EC50: read-out: EC50, enhancement of the effect of GABA, [GABA]=1 μM, benzodiazepine 0-10 μM. The protocol:
as §2, §3
A general note: Patch clamp records ionic current or voltage across a cell membrane.

For a further data set, the system named is A375 and B16F10 cells. The data set can be described thus: p53 expression and mitochondrial transmembrane potential in melanoma cells. The class given is cell-based, human and murine. How it is done: Changes induced by the benzodiazepine as a consequence of creating a net efflux of chloride anion, included an upregulation of TP53 and a depolarization of the mitochondrial transmembrane potential, ultimately resulting in apoptosis via the intrinsic mitochondria-mediated pathway. Thus, Experiments were performed to determine if benzodiazepine elicited a similar response in A375 and B16F10 cells.

Another data set concerns B16F10-GP tumor. The experiment in a line: B16F10-GP syngeneic melanoma murine model, bilateral flank tumors, tumor volume. The class given is in vivo, C57BL/6 mice. How it is done: The clinical observation of improved outcome for RT-ICI was analyzed using a murine model. B16F10-GP cells (0.5×10^5) were implanted in both right and left flanks of C57BL/6 mice (FIG. 1A). A single dose of radiation at 10 Gy was delivered to the right flank only using a 0.5 cm bolus material, on Day 10 after implanting the melanoma cells. Day 10 was chosen to allow for growth of tumor cells in flanks to the point where they became palpable. […] Anti-PD-L1 was given by intraperitoneal injection every third day.
Since melanoma cell viability in vitro was impaired by benzodiazepines QH-II-066 and KRM-II-08, experiments were performed to determine if benzodiazepine had anti-tumor activity in vivo. […] Given that immune checkpoint inhibitor efficacy is enhanced by radiation therapy, experiments were performed to determine whether RT combined with QH-II-066 synergize to control ipsilateral and abscopal tumor volume using the B16F10-GP syngeneic melanoma murine model. B16F10-GP melanoma cells were implanted (0.5×10^5) in both right and left flanks of C57BL/6 mice (FIG. 3B). A single dose of radiation (either 10 or 5 Gy) was delivered to the right flank on Day 10 after implanting of B16F10-GP cells. […] There was no difference when using different radiation doses (10 or 5 Gy).
Having observed that QH-II-066 could sensitize a melanoma tumor to radiation and that expression of genes with roles in the cytokine:cytokine receptor interaction pathway was enhanced, experiments were performed to determine if QH-II-066 was capable of potentiating the programmed death ligand 1 immune checkpoint inhibitor (anti-PD-L1). B16F10-GP melanoma cells were implanted in both the right and left flanks of C57BL/6 mice. Day 10 in both the right and left flanks injected i.p.: (i) QH-II-066 (10 mg/kg), then every day for seven days; (ii) anti-PD-L1 (200 μg), then every third day thereafter; (iii) QH-II-066 (10 mg/kg) and anti-PD-L1 (200 μg) at time and frequency detailed for monotherapy treatment groups (FIG. 5).
Having observed potentiation of radiation and anti-PD-L1 by QH-II-066 individually, there might be a more significant tumor response if we administered a ‘combo’ consisting of radiation (5 Gy), anti-PD-L1, plus QH-II-066. As before, B16F10-GP melanoma cells were implanted in both the right and left flanks of C57BL/6 mice (FIG. 5). The following experimental groups were tested: (i) vehicle alone control; (ii) QH-II-066 alone (10 mg/kg); (iii) a single morning dose of radiation (5 Gy) delivered to the right flank, followed by evening dose of QH-II-066 (10 mg/kg); (iv) anti-PD-L1 plus QH-II-066; (v) a single morning dose of radiation (5 Gy) delivered to the right flank, followed by an evening dose of anti-PD-L1; (vi) a triple or combo therapy, consisting of a single morning dose of radiation (5 Gy) delivered to the right flank, followed by evening doses of anti-PD-L1 plus QH-II-066. After initial i.p. injection of QH-II-066 on Day 10, QH-II-066 was injected i.p. every day for seven days; while anti-PD-L1 was injected i.p. every third day thereafter.
B16F10-GP cell line was grown in Dulbecco's Modified Eagle's medium (DMEM) supplemented with 10% Fetal Bovine Serum, 100 U/mL penicillin and 100 μg/mL streptomycin, 2 mM glutamine. Cells were cultured at 37° C. with 5% CO2.
B16F10-GP melanoma cells ([…]) were implanted in matrigel (25%) on right and left flank of 6-8 week old female C57BL/6 mice (Jackson Laboratories, Bar Harbor, Me.). […]

Data set [3] deals with CD8+ T cells in B16F10-GP tumors. The data set can be described thus: Immunophenotyping of tumor infiltrating lymphocytes of bilateral B16F10-GP tumors by flow cytometry. The class given is in vivo, C57BL/6 mice. How it is done: Mice were sacrificed and tumor infiltrating lymphocytes (TILs) were isolated, stained, and analyzed using flow cytometry. For cytokine analysis, TILs were stimulated with GP33 peptide for 6 hours in presence of GolgiStop™ and GolgiPlug™ and analyzed using flow cytometry. Tumor weight and Lymphocyte number per gram tumor.
To determine whether these apparent synergistic effects were mediated by an enhanced immune response, immunophenotyping of bilateral tumors was performed. […] (FIG. 4A-4E).

The subject of data set [4] is medulloblastoma cancer cells. The following applies: sustained incubation; cited from earlier work.
The conditions of data set [5]: non-human primates, previously tested; cited from earlier work.

On to `CN1C(=O)CN=C(c2ccccc2)c2cc(Cl)ccc21` [diazepam, reference compound], for which the “effect on cell viability” value with A375 cells and in the data set on B16F10 cells was “no effect” each time.
For `NCCCC(=O)O` [GABA, gamma-aminobutyric acid, reference compound], the “maximal response to GABA (current)” value is listed as −230±41 pA in the data set on GABAAR [1] (A375 cells, patch clamp, n=8) and −430±70 pA in the data set with GABAAR [2] (patch clamp, n=6).
One may read the EC50 as the concentration needed to bring the measured effect to its halfway point. The term IC50 denotes the midpoint of a concentration-inhibition curve. As to `C#Cc1ccc2c(c1)C(c1ccccc1)=NCC(=O)N2C` [QH-II-066, 7-ethynyl-1-methyl-5-phenyl-1,3-dihydro-2H-benzo[e][1,4]diazepin-2-one], in the data set on GABAAR [1], the “mode of action at GABAAR from electrophysiology” value is listed as “GABAAR positive allosteric modulators”. Also, the values for the concentration for a half-maximal effect (EC50) in the data set with GABAAR [1] (A375 cells) and in the data set with GABAAR [2] were 900 ± 400 nM and 160 ± 90 nM, respectively. Further, the IC50 was found to be 2700 ± 200 nM in the data set on A375 cells and 8200 ± 900 nM in the data set with B16F10 cells. Moreover, in the data set on A375 and B16F10 cells, the “expression of p53” value is “enhanced expression of p53”. In the data set on A375 and B16F10 cells, the “time to depolarization of the mitochondrial transmembrane potential” value was at most 10 min. Besides, the “ipsilateral and abscopal tumor effect, combo of radiation, anti-PD-L1 and QH-II-066” value in the data set on B16F10-GP tumor (5 Gy right flank Day 10, then anti-PD-L1 200 μg every third day plus QH-II-066 10 mg/kg daily 7 days) was “complete tumor regression in some animals”. The “B16F10-GP tumor growth, monotherapy dose response” value with B16F10-GP tumor (10, 25 and 50 mg/kg i.p. daily for a week, negligible difference between 25 and 50 mg/kg) is on record as “dose-dependent reduction”. Also, the “anti-tumor effect on ipsilateral and contralateral tumor, combination with radiation therapy” value in the data set on B16F10-GP tumor (10 or 5 Gy right flank Day 10, then QH-II-066 10 mg/kg daily 7 days) is “strongly synergistic anti-tumor effect”. Moreover, the “tumor volume, dual therapy QH-II-066 and anti-PD-L1” value in the data set on B16F10-GP tumor (QH-II-066 10 mg/kg daily 7 days plus anti-PD-L1 200 μg every third day) was “most significant reduction in tumor volume”. Moreover, the “tumor volume, monotherapy” value in the data set with B16F10-GP tumor (QH-II-066 10 mg/kg i.p. daily 7 days or anti-PD-L1 200 μg i.p. every third day, from Day 10) is “comparable reductions in tumor volume”. For the same molecule, in data set [3] (10 or 5 Gy plus QH-II-066, compared to vehicle), the “CD8+ T cell infiltration of ipsilateral tumor, radiation in combination with QH-II-066” value is on record as “enhanced infiltration of CD8+ T cells”. The “CD8+ T cell infiltration of tumor, QH-II-066 alone” value in data set [3] (QH-II-066 10 mg/kg alone, compared to vehicle) was “did not induce CD8+ T cell infiltration”. The “antigen-specific, poly-functional T cells (expressing IFN-γ and TNF-α) in ipsilateral and contralateral tumors” value in [3] (ipsilateral radiation therapy + systemic QH-II-066) was “significant increase”. In data set [4], the “effectiveness in impairing cell viability versus diazepam” value was “more than an order of magnitude improved effectiveness”. The “adverse side effects or toxicity” value in data set [5] is “without any adverse side effects or toxicity”.
Consider `C#Cc1ccc2c(c1)C(c1ccccc1F)=NCC(=O)N2C` [KRM-II-08, 7-ethynyl-5-(2-fluorophenyl)-1-methyl-1,3-dihydro-2H-benzo[e][1,4]diazepin-2-one], for which the “mode of action at GABAAR from electrophysiology” value in the data set with GABAAR [1] is “GABAAR positive allosteric modulators”. For the same molecule, the EC50 in the data set with GABAAR [1] (A375 cells) was determined as 1700 ± 200 nM; in the data set with GABAAR [2] it was 200 ± 100 nM. In addition, the figures for the IC50 in the data set on A375 cells and in the data set on B16F10 cells were 1330 ± 80 nM and 6100 ± 800 nM, respectively. Also, the “effectiveness in impairing cell viability versus diazepam” value in data set [4] is recorded as “more than an order of magnitude improved effectiveness”.
As for `CC(=O)[C@H]1CC[C@H]2[C@@H]3CC[C@H]4C[C@H](O)CC[C@]4(C)[C@H]3CC[C@]12C` [Allopregnanolone, allopregnanolone, reference compound], the “effect on cell viability” value in the data set on A375 cells and with B16F10 cells was “does not impair” each time.
